Reference: patent US10098878B2, “HIF-2α inhibitors for treating iron overload disorders” (The Board of Regents of the University of Texas System, priority 2014, dated 2018)
Where two headings read alike, the source gives them in different places.

What was measured:
[1] = biological target: T1, HIF-2α HIS TAG-PASB Domain (Homo sapiens, UniProt Q99814); assay: HIF-2α Scintillation Proximity Assay (SPA); format: binding; details: 100 nM HIF-2α HIS TAG-PASB Domain
T1 construct: 100 nM HIF-2α HIS TAG-PASB Domain
Method in brief: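 IC50 values rest on percent inhibition, where the sample signal is scaled between high and low controls. Wells contain about 100 μL: compound dispensed as 2 μL of DMSO solution, 88 μL protein-probe mix and 10 μL of beads.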

786-0 cells = assay: VEGF ELISA Assay; format: cell-based
Protocol: Each concentration had duplicated wells. About 20 hours later, medium was removed by suction and each well was supplied with 180 μL of growth medium. About 20 μl freshly-made 10× compound stocks were added to each well. […] The EC50 was calculated by GraphPad Prism using the dose-response-inhibition (four parameter) equation. The cell seeded plate was then subjected to CellTiter-Glo luminescence cell viability assay (Promega) by adding 50 μL of Celltiter Glo reagent into each well and shaking the plate for 8 minutes at 550 rpm (Thermomixer R, Eppendorf) then read luminescence signal in plate reader (3 second delay, 0.5 second/well integration time, Synergy 2 multi Detection Microplate reader) immediately.

786-O-Hif-Luc cells = assay: Luciferase Assay; format: cell-based; details: read-out: Luciferase EC50
Protocol: A pool of infected cells were then selected against 2 μg/mL of puromycin (P8833, Sigma) for 10 days followed by limited dilution to select single clones.
Each concentration was tested in triplicate. After about 24 hours, luciferase activity was determined using ONE-Glo Luciferase Assay Reagent (E6110, Promega) following the manufacturer's recommended procedure. EC50 were calculated by using Dotmatics software.

[2] = 150 nM Compound 211 probe, read-out: SPA IC50
[3] = Homo sapiens, 786-0, 786-0 cells, VEGFA concentration in cell culture medium, read-out: VEGF ELISA EC50
[4] = 24 h, 786-O-Hif-Luc cells, about 24 hours
[5] = 786-0 cells, VEGFA concentration in cell culture medium, read-out: VEGF ELISA EC50
[6] = 786-O-Hif-Luc cells, about 24 hours
[7] = SPA IC50, 150 nM Compound 211 probe
[8] = Homo sapiens, 786-0, read-out: VEGF ELISA EC50

T1 sequence (Q99814 240-350 limits assumed): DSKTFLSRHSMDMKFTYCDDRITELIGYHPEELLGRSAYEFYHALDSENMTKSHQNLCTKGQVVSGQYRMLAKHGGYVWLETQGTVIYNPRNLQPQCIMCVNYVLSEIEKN

| IC50 [1, 2] | EC50 (786-0 cells; [3]) | EC50 (786-O-Hif-Luc cells; [4]) | SMILES | other results |
| --- | --- | --- | --- | --- |
| < 5 nM | 20 nM | – | N#Cc1cc(F)cc(Oc2ccc(S(=N)(=O)C(F)(F)F)c3c2CC(F)(F)[C@H]3O)c1 (single isomer, unassigned) [Compound 69] | – |
| < 5 nM | – | – | N#Cc1cc(F)cc(Oc2ccc(S(=N)(=O)C(F)(F)F)c3c2CC(F)(F)[C@H]3O)c1 (single isomer, unassigned) [Compound 70] | EC50 (786-0 cells; [5]): 19 nM |
| – | 20 nM | 7 nM | N#Cc1cc(F)cc(Oc2ccc(S(=O)(=O)CF)c3c2CC(F)(F)[C@H]3O)c1 [Compound 3, (S)-3-((2,2-difluoro-7-((fluoromethyl)sulfonyl)-1-hydroxy-2,3-dihydro-1H-inden-4-yl)oxy)-5-fluorobenzonitrile] | IC50 [1, 7]: < 5 nM |
| < 5 nM | 70 nM | 34 nM | Cc1cc(C#N)cc(Oc2ccc(S(=O)(=O)CF)c3c2CC(F)(F)[C@H]3O)c1 [Compound 7, (S)-3-((2,2-Difluoro-7-((fluoromethyl)sulfonyl)-1-hydroxy-2,3-dihydro-1H-inden-4-yl)oxy)-5-methylbenzonitrile] | – |
| – | 4 nM | 3 nM | N#Cc1cc(F)cc(Oc2ccc(S(=O)(=O)C(F)(F)F)c3c2CC(F)(F)[C@H]3O)c1 [Compound 8, (S)-3-((2,2-Difluoro-1-hydroxy-7-((trifluoromethyl)sulfonyl)-2,3-dihydro-1H-inden-4-yl)oxy)-5-fluorobenzonitrile] | IC50 [1, 7]: < 5 nM |
| < 5 nM | 13 nM | 11 nM | O=S(=O)(c1ccc(Oc2cncc(Cl)c2)c2c1[C@H](O)C(F)(F)C2)C(F)(F)F [Compound 9, (S)-4-((5-Chloropyridin-3-yl)oxy)-2,2-difluoro-7-((trifluoromethyl)sulfonyl)-2,3-dihydro-1H-inden-1-ol] | – |
| < 5 nM | 69 nM | 25 nM | N#Cc1cncc(Oc2ccc(S(=O)(=O)C(F)(F)F)c3c2C[C@@H](F)[C@H]3O)c1 [Compound 14, 5-(((1S,2R)-2-Fluoro-1-hydroxy-7-((trifluoromethyl)sulfonyl)-2,3-dihydro-1H-inden-4-yl)oxy)nicotinonitrile] | – |
| – | 54 nM | 30 nM | O=S(=O)(c1ccc(Oc2ccc(F)c3[nH]ncc23)c2c1[C@H](O)C(F)(F)C2)C(F)(F)F [Compound 30, (S)-2,2-difluoro-4-((7-fluoro-1H-indazol-4-yl)oxy)-7-((trifluoromethyl)sulfonyl)-2,3-dihydro-1H-inden-1-ol] | – |
| 110 nM | 830 nM | 160 nM | N#Cc1cc(Oc2ccc(S(=O)(=O)C(F)(F)F)c3c2CC(F)(F)[C@H]3O)c[n+]([O-])c1 [Compound 31, (S)-3-cyano-5-((2,2-difluoro-1-hydroxy-7-((trifluoromethyl)sulfonyl)-2,3-dihydro-1H-inden-4-yl)oxy)pyridine 1-oxide] | – |
| < 5 nM | 6 nM | 5 nM | N#Cc1cc(F)cc(Oc2ccc(C(F)(F)F)c3c2CC(F)(F)[C@H]3O)c1 [Compound 37, 3-[(1S)-2,2-Difluoro-1-hydroxy-7-(trifluoromethyl)indan-4-yl]oxy-5-fluoro-benzonitrile] | – |
| 37 nM | 64 nM | 35 nM | N#Cc1cncc(Oc2ccc(C(F)(F)F)c3c2CC(F)(F)[C@H]3O)c1 [Compound 67, 5-[(1S)-2,2-difluoro-1-hydroxy-7-(trifluoromethyl)indan-4-yl]oxypyridine-3-carbonitrile] | – |
| < 5 nM | 26 nM | 9 nM | O=S(=O)(c1ccc(Oc2cncc(F)c2)c2c1[C@H](O)C(F)(F)C2)C(F)(F)F [Compound 73, (S)-2,2-difluoro-4-((5-fluoropyridin-3-yl)oxy)-7-((trifluoromethyl)sulfonyl)-2,3-dihydro-1H-inden-1-ol] | – |
| 16 nM | 140 nM | 113 nM | O=S(=O)(c1ccc(Oc2cc(F)c[n+]([O-])c2)c2c1[C@H](O)C(F)(F)C2)C(F)(F)F [Compound 74, (S)-3-((2,2-difluoro-1-hydroxy-7-((trifluoromethyl)sulfonyl)-2,3-dihydro-1H-inden-4-yl)oxonio)-5-fluoropyridine 1-oxide] | – |

Continued, molecule first:

| SMILES | IC50 [1, 2] | EC50 (786-0 cells; [3]) | EC50 (786-O-Hif-Luc cells; [4]) | other results |
| --- | --- | --- | --- | --- |
| CS(=O)(=NC#N)c1ccc(Oc2cc(F)cc(C#N)c2)c2c1[C@H](O)C(F)(F)C2 (single isomer, unassigned) [Compound 20] | 27 nM | 67 nM | 28 nM | – |
| N#Cc1cc(F)cc(Oc2ccc(S(=N)(=O)CF)c3c2CC(F)(F)[C@H]3O)c1 (single isomer, unassigned) [Compound 38] | 94 nM | 1440 nM | 195 nM | – |
| CS(=O)(=NC#N)c1ccc(Oc2cc(F)cc(C#N)c2)c2c1[C@H](O)C(F)(F)[C@@H]2F (single isomer, unassigned) [Compound 80] | < 5 nM | 17 nM | 12 nM | – |
| CS(=O)(=NC#N)c1ccc(Oc2cc(F)cc(C#N)c2)c2c1[C@H](O)C(F)(F)[C@@H]2F (single isomer, unassigned) [Compound 81] | < 5 nM | – | – | EC50 (786-0 cells; [5]): 14 nM |
| CS(=O)(=NC#N)c1ccc(Oc2cncc(C#N)c2)c2c1[C@H](O)C(F)(F)[C@@H]2F (single isomer, unassigned) [Compound 83] | 14 nM | 95 nM | 83 nM | – |
| CS(=O)(=NC#N)c1ccc(Oc2cncc(C#N)c2)c2c1[C@H](O)C(F)(F)[C@@H]2F (single isomer, unassigned) [Compound 85] | 32 nM | – | – | EC50 (786-0 cells; [5]): 190 nM; EC50 (786-O-Hif-Luc cells; [6]): 114 nM |
| N=S1(=O)c2ccc(Oc3cc(F)cc(F)c3)c(C(F)F)c2C(O)C1(F)F (single isomer, unassigned) [Compound 162, 4-(Difluoromethyl)-5-(3,5-difluorophenoxy)-2,2-difluoro-3-hydroxy-1-imino-2,3-dihydro-1H-1λ^4-benzo[b]thiophene 1-oxide] | 29 nM | 90 nM | 69 nM | – |
| CS(=O)(=O)c1ccc(Oc2cc(F)cc(C#N)c2)c2c1[C@H](O)C(F)(F)[C@@H]2F [Compound 56, 3-fluoro-5-[(1S,3R)-2,2,3-trifluoro-1-hydroxy-7-methylsulfonyl-indan-4-yl]oxy-benzonitrile] | < 5 nM | – | – | EC50 (786-0 cells; [8]): 6 nM; EC50 (786-O-Hif-Luc cells; 24 h): 3 nM |
| CS(=O)(=O)c1ccc(Oc2cc(F)cc(Br)c2)c2c1[C@H](O)C(F)(F)C2 [Compound 68, (S)-4-(3-bromo-5-fluorophenoxy)-2,2-difluoro-7-(methylsulfonyl)-2,3-dihydro-1H-inden-1-ol] | < 5 nM | 62 nM | 22 nM | – |
| N#Cc1cc(F)cc(Oc2ccc(S(N)(=O)=O)c3c2[C@@H](F)C(F)(F)[C@H]3O)c1 [Compound 102, (1R,3S)-7-(3-cyano-5-fluoro-phenoxy)-1,2,2-trifluoro-3-hydroxy-indane-4-sulfonamide] | – | – | – | EC50 (786-0 cells; [8]): 11 nM; EC50 (786-O-Hif-Luc cells; 24 h): 6 nM |
| O=S1(=O)c2ccc(Oc3cc(F)cc(Cl)c3)c(Br)c2C(O)C1(F)F (stereo not drawn) [Compound 119, 4-Bromo-5-(3-chloro-5-fluorophenoxy)-2,2-difluoro-3-hydroxy-2,3-dihydrobenzo[b]thiophene 1,1-dioxide] | – | – | – | EC50 (786-0 cells; Homo sapiens, 786-0 cells, VEGFA concentration in cell culture medium, read-out: VEGF ELISA EC50): 64 nM; EC50 (786-O-Hif-Luc cells; [6]): 46 nM |
